In US10336761B2, “TGFβ receptor antagonist” (BRISTOL-MYERS SQUIBB COMPANY, priority 2015, dated 2019) one finds IC50 data, which are given here for 25 compounds.

Where only a bound is given, the exact number is not on record here.

The experiment has as its target HIS-TGFβR1 T204D (Homo sapiens (Human), UniProt P36897, T204D). Put plainly: HTRF probe-displacement assay, HIS-TGFβR1 T204D. In kind it is binding. The settings on record: 1 hour at room temperature. For orientation: TR-FRET usually uses a lanthanide donor and a delayed reading to cut background.

Sequence of HIS-TGFβR1 T204D (P36897 34-503 T204D): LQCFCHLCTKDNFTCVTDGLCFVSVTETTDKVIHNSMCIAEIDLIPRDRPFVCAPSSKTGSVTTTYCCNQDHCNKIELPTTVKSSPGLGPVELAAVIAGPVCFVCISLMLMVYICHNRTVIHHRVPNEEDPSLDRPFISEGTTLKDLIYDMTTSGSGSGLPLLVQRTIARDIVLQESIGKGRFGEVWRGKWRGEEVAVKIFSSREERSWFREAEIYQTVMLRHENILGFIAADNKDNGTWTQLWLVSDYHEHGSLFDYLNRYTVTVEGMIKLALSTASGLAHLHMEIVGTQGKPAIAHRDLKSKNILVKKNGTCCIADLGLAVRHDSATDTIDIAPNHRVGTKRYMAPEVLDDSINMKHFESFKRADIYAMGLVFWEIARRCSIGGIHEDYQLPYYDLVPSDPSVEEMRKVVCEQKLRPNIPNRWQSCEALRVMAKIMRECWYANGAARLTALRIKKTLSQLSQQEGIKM

On to `C=Cc1cc2c(Nc3ccncc3F)nc(-c3cccc(OC)n3)nn2c1` [Example 210, N-[6-ethenyl-2-(6-methoxypyridin-2-yl)pyrrolo[2,1-f][1,2,4]triazin-4-yl]-3-fluoropyridin-4-amine], for which the IC50 (usually the concentration at which inhibition is half-maximal) came to 30 nM.
For `COc1cccc(-c2nc(Nc3ccncc3F)c3cc(/C=C/CCO)cn3n2)n1` [Example 211, (3E)-4-{4-[(3-fluoropyridin-4-yl)amino]-2-(6-methoxypyridin-2-yl)pyrrolo[2,1-f][1,2,4]triazin-6-yl}but-3-en-1-ol] the value was 30 nM; for `COc1cccc(-c2nc(Nc3ccncc3NC(=O)CN3CCOCC3)c3cccn3n2)n1` [Example 212, N-(4-{[2-(6-methoxypyridin-2-yl)pyrrolo[2,1-f][1,2,4]triazin-4-yl]amino}pyridin-3-yl)-2-(morpholin-4-yl)acetamide], 3000 nM; for `Fc1cccc(-c2nc(Nc3ccncc3)c3cccn3n2)n1` [Example 213, N-[2-(6-fluoropyridin-2-yl)pyrrolo[2,1-f][1,2,4]triazin-4-yl]pyridin-4-amine], 14 nM.
Compound `CSc1nccc(-c2nc(Nc3ccncc3)c3cccn3n2)n1` [Example 215, N-{2-[2-(methylsulfanyl)pyrimidin-4-yl]pyrrolo[2,1-f][1,2,4]triazin-4-yl}pyridin-4-amine] registered an IC50 of 6.9 nM.
For `CCOC(=O)c1cc2c(Nc3ccncc3)nc(-c3cccc(C)n3)nn2c1` [Example 216, Ethyl 2-(6-methylpyridin-2-yl)-4-[(pyridin-4-yl)amino]pyrrolo[2,1-f][1,2,4]triazine-6-carboxylate] the value was 33 nM; for `Cc1cccc(-c2nc(Nc3ccncc3)c3cc(C(=O)Nc4ccccc4)cn3n2)n1` [Example 217, 2-(6-methylpyridin-2-yl)-N-phenyl-4-[(pyridin-4-yl)amino]pyrrolo[2,1-f][1,2,4]triazine-6-carboxamide], 7.7 nM.
To `Cc1cccc(-c2nc(Nc3ccncc3)c3cc(C(=O)N(C)C)cn3n2)n1` [Example 218, N,N-dimethyl-2-(6-methylpyridin-2-yl)-4-[(pyridin-4-yl)amino]pyrrolo[2,1-f][1,2,4]triazine-6-carboxamide] belongs 130 nM.
`Cc1cccc(-c2nc(Nc3ccncc3)c3cc(C(N)=O)cn3n2)n1` [Example 219, 2-(6-methylpyridin-2-yl)-4-[(pyridin-4-yl)amino]pyrrolo[2,1-f][1,2,4]triazine-6-carboxamide]: the half-inhibitory concentration (IC50) worked out at 10 nM.
The compound `CNC(=O)c1cc2c(Nc3ccncc3)nc(-c3cccc(C)n3)nn2c1` [Example 220, N-methyl-2-(6-methylpyridin-2-yl)-4-[(pyridin-4-yl)amino]pyrrolo[2,1-f][1,2,4]triazine-6-carboxamide] came in with a concentration for half-maximal inhibition (IC50) of 11 nM.
For `Cc1cccc(-c2nc(Nc3ccncc3C(=O)NCCCN3CCCC3)c3cccn3n2)n1` [Example 221, 4-{[2-(6-methylpyridin-2-yl)pyrrolo[2,1-f][1,2,4]triazin-4-yl]amino}-N-[3-(pyrrolidin-1-yl)propyl]pyridine-3-carboxamide] the value was 4 nM; for `Cc1cccc(-c2nc(Nc3ccncc3OCCCN3CCOCC3)c3cccn3n2)n1` [Example 222, N-[2-(6-methylpyridin-2-yl)pyrrolo[2,1-f][1,2,4]triazin-4-yl]-3-[3-(morpholin-4-yl)propoxy]pyridin-4-amine], 67 nM; for `NC(=O)c1cnccc1Nc1nc(-c2ccc(F)c(C(F)F)n2)nn2cccc12` [Example 224, 4-({2-[6-(difluoromethyl)-5-fluoropyridin-2-yl]pyrrolo[2,1-f][1,2,4]triazin-4-yl}amino)pyridine-3-carboxamide], 1.4 nM.
To `CC(=O)Nc1cc(Nc2nc(-c3cccc(C(F)F)n3)nn3cccc23)c(F)cn1` [Example 225, N-[4-({2-[6-(difluoromethyl)pyridin-2-yl]pyrrolo[2,1-f][1,2,4]triazin-4-yl}amino)-5-fluoropyridin-2-yl]acetamide] belongs 5.1 nM; to `CC(=O)Nc1cc(Nc2nc(-c3ccc(F)cn3)nn3cccc23)ccn1` [Example 227, N-(4-{[2-(5-fluoropyridin-2-yl)pyrrolo[2,1-f][1,2,4]triazin-4-yl]amino}pyridin-2-yl)acetamide], 3.6 nM.
For `NC(=O)c1cnccc1Nc1nc(-c2cccc(C(F)F)n2)nn2cccc12` [Example 228, 4-({2-[6-(difluoromethyl)pyridin-2-yl]pyrrolo[2,1-f][1,2,4]triazin-4-yl}amino)pyridine-3-carboxamide] the value was 1.6 nM; for `CC(=O)Nc1nccc(Nc2nc(-c3cccc(C(F)F)n3)nn3cccc23)c1F` [Example 229, N-[4-({2-[6-(difluoromethyl)pyridin-2-yl]pyrrolo[2,1-f][1,2,4]triazin-4-yl}amino)-3-fluoropyridin-2-yl]acetamide], 5.1 nM; for `FC(F)(F)c1cccc(-c2nc(Nc3ccnc(-c4cc[nH]n4)c3)c3cccn3n2)n1` [Example 230, 2-(1H-pyrazol-3-yl)-N-{2-[6-(trifluoromethyl)pyridin-2-yl]pyrrolo[2,1-f][1,2,4]triazin-4-yl}pyridin-4-amine], 100 nM.
Regarding `OCCN1CCN(Cc2ccn3nc(-c4ccccn4)nc(Nc4ccncc4F)c23)CC1` [Example 231, 2-[4-({4-[(3-fluoropyridin-4-yl)amino]-2-(pyridin-2-yl)pyrrolo[2,1-f][1,2,4]triazin-5-yl}methyl)piperazin-1-yl]ethan-1-ol], the IC50 was 2.3 nM.
To `O[C@H]1CCN(Cc2ccn3nc(-c4ccccn4)nc(Nc4ccncc4F)c23)C1` [Example 232, (3S)-1-({4-[(3-fluoropyridin-4-yl)amino]-2-(pyridin-2-yl)pyrrolo[2,1-f][1,2,4]triazin-5-yl}methyl)pyrrolidin-3-ol] belongs 0.93 nM; to `O[C@@H]1CCN(Cc2ccn3nc(-c4ccccn4)nc(Nc4ccncc4F)c23)C1` [Example 233, (3R)-1-({4-[(3-fluoropyridin-4-yl)amino]-2-(pyridin-2-yl)pyrrolo[2,1-f][1,2,4]triazin-5-yl}methyl)pyrrolidin-3-ol], 0.85 nM; to `CN1CCN(Cc2ccn3nc(-c4ccc(F)cn4)nc(Nc4ccncc4F)c23)CC1` [Example 234, 3-fluoro-N-[2-(5-fluoropyridin-2-yl)-5-[(4-methylpiperazin-1-yl)methyl]pyrrolo[2,1-f][1,2,4]triazin-4-yl]pyridin-4-amine], 3 nM.
To `CC(C)(O)CNCc1ccn2nc(-c3ccc(F)cn3)nc(Nc3ccncc3F)c12` [Example 235, 1-({[2-(5-fluoropyridin-2-yl)-4-[(3-fluoropyridin-4-yl)amino]pyrrolo[2,1-f][1,2,4]triazin-5-yl]methyl}amino)-2-methylpropan-2-ol] belongs under 0.25 nM; to `OC1CCC(NCc2ccn3nc(-c4ccccn4)nc(Nc4ccncc4F)c23)CC1` (stereo not shown) [Example 236, 4-[({4-[(3-fluoropyridin-4-yl)amino]-2-(pyridin-2-yl)pyrrolo[2,1-f][1,2,4]triazin-5-yl}methyl)amino]cyclohexan-1-ol], 2.2 nM; to `OC12C[C@H]3C[C@@H](C1)CC(NCc1ccn4nc(-c5ccccn5)nc(Nc5ccncc5F)c14)(C3)C2` [Example 237, (5R,7S)-3-[({4-[(3-fluoropyridin-4-yl)amino]-2-(pyridin-2-yl)pyrrolo[2,1-f][1,2,4]triazin-5-yl}methyl)amino]adamantan-1-ol], 1.2 nM.
